Article PMC7159882, “Polyunsaturated fatty acid analogues differentially affect cardiac NaV, CaV, and KV channels through unique mechanisms” (eLife, 2020)

Biological target: T1, Kv7.1/KCNE1 (Homo sapiens, UniProt P51787)
T1 construct: cRNA encoding Kv7.1 (UniProt: P51787), KCNE1 (UniProt: P15382.1); expressed in transfected cells; host or cells: Xenopus laevis oocytes (cRNA injection, Kv7.1:KCNE1 3:1 by weight)
Assay: Two-electrode voltage clamp of Kv7.1/KCNE1 expressed in Xenopus oocytes
Assay type: cell-based
Parameters: Fitted slope factor of conductance vs voltage relationship: unit of the concentration uncertain
Details: for IKs I/I0: relative current at 0 mV
Method: Molecular Biology cRNA encoding Kv7.1 (UniProt: P51787), KCNE1 (UniProt: P15382.1), Nav1.5 (UniProt: Q14524.1), Nav β1 (UniProt: […]), Nav β3 (UniProt: […]), Cav1.2 (GenBank: CAA84346), Cav β3 (Uniprot: P54286), Cav β2 (Uniprot: P54288), and Cav α2δ (Uniprot: P13806) were transcribed using the mMessage mMachine T7 kit (Ambion). 50 ng of cRNA was injected into defolliculated Xenopus laevis oocytes (Ecocyte, Austin, TX): For Kv7.1/KCNE1 channel expression, we injected a 3:1, weight:weight (Kv7.1:KCNE1) cRNA ratio. For Nav1.5 channel expression, we injected a 2:1, weight:weight (Nav1.5:β1) cRNA ratio. For Cav1.2 channel expression, we injected a 2:1:1, weight:weight (Cav1.2:β3:α2δ) cRNA ratio. The exact stoichiometry for channel macromolecular complexes, including α -subunits and auxiliary subunits is not clear for many ion channels. For example, there have been multiple reported stoichiometries for Kv7.1:KCNE1 determined in heterologous expression systems with some groups reporting flexible stoichiometry of 4 Kv7.1: 1–4 KCNE1 and others reporting a fixed stoichiometry of 4 Kv7.1: 2 KCNE1 ([Murray et al., 2016]; [Nakajo et al., 2010]). The ratios of cRNA of α- and auxiliary subunits that we injected in Xenopus laevis oocytes are such that all α-subunits are assumed to be in complex with auxiliary subunits. This allows a more homogenous population of ion channels with auxiliary subunits. One caveat to expressing ion channels as macromolecular complexes is that there are many other auxiliary subunits that could associate with the channel α -subunit that are present in cardiomyocytes and have the potential to alter PUFA-induced effects, but that are not being co-expressed in our experiments. In this work, we are co-expressing some of the auxiliary subunits that have been primarily reported to associate with their respective α -subunits in cardiomyocytes. Following cRNA injection, cells were incubated for 72–96 hr in standard ND96 solution (96 mM NaCl, 2 mM KCl, 1 mM MgCl2, 1.8 mM CaCl2, 5 mM HEPES; pH = 7.5) containing 1 mM pyruvate at 16°C prior to electrophysiological recordings.
Xenopus laevis oocytes were recorded in the two-electrode voltage clamp (TEVC) configuration. Recording pipettes were filled with 3 M KCl. The recording chamber was filled with ND96 (96 mM NaCl, 2 mM KCl, 1 mM MgCl2, 1.8 mM CaCl2, 5 mM HEPES; pH 7.5). For Cav1.2/β3/α2δ channel recordings, Xenopus oocytes were injected with 50 nl of 100 mM EGTA and incubated at 10°C for 30 min prior to electrophysiological recordings in order to sequester cytosolic calcium. In addition, Cav1.2/β3/α2δ channel recordings were done in Ca^2+-free solutions, using Ba^2+ as the charge carrier, to prevent calcium-dependent inactivation of Cav1.2/β3/α2δ channels. Calcium-dependent inactivation was not studied in this work, due to the presence of large calcium-activated chloride currents present in Xenopus laevis oocytes. PUFAs were obtained from Cayman Chemical (Ann Arbor, MI.) or synthesized in house (Linköping, Sweden) through methods previously described ([Bohannon et al., 2020]) and kept at −20 °C as 100 mM stock solutions in ethanol. […] PUFAs were perfused into the recording chamber using the Rainin Dynamax Peristaltic Pump (Model RP-1) (Rainin Instrument Co., Oakland, CA. USA).
Electrophysiological recordings were obtained using Clampex 10.3 software (Axon, pClamp, Molecular Devices). To measure Kv7.1/KCNE1 currents we apply PUFAs as the membrane potential is stepped every 30 s from −80 mV to 0 mV for 5 s before stepping to −40 mV and back to −80 mV to ensure that the PUFA effects on the current at 0 mV reached steady state. A voltage-step protocol was used to measure the current vs. voltage (I-V) relationship before PUFA application and after the PUFA effects had reached steady state for each concentration of PUFA. Cells were held at −80 mV followed by a hyperpolarizing prepulse to −140 mV. […]

SMILES | Fitted slope factor of conductance vs voltage relationship (0.2 μM) | Gmax/Gmax0 (0.2 μM) | ΔV0.5 (voltage dependence of activation) (0.2 μM) | IKs I/I0 (0.2 μM) | Fitted slope factor of conductance vs voltage relationship (0.7 μM) | Gmax/Gmax0 (0.7 μM) | ΔV0.5 (voltage dependence of activation) (0.7 μM) | IKs I/I0 (0.7 μM) | Fitted slope factor of conductance vs voltage relationship (2 μM) | Gmax/Gmax0 (2 μM) | ΔV0.5 (voltage dependence of activation) (2 μM) | IKs I/I0 (2 μM) | Fitted slope factor of conductance vs voltage relationship (7 μM) | Gmax/Gmax0 (7 μM) | ΔV0.5 (voltage dependence of activation) (7 μM) | Fitted slope factor of conductance vs voltage relationship (20 μM) | Gmax/Gmax0 (20 μM) | ΔV0.5 (voltage dependence of activation) (20 μM) | IKs I/I0 (20 μM) | IKs I/I0 (7 μM) | also measured
CC/C=C\C/C=C\C/C=C\C/C=C\C/C=C\C/C=C\CCC(=O)NCC(=O)O [DHA-glycine, docosahexaenoyl glycine] | 16.5 ± 0.49 mV | 1.3 ± 0.1 | -2.0 ± 0.8 mV | 1.3 ± 0.1 | 16.6 ± 0.45 mV | 1.5 ± 0.1 | -3.0 ± 1.0 mV | 1.7 ± 0.2 | 16.6 ± 0.52 mV | 1.7 ± 0.2 | -5.8 ± 0.9 mV | 2.4 ± 0.5 | 17.0 ± 0.56 mV | 1.9 ± 0.2 | −10.5 ± 1.0 mV | 17.9 ± 0.68 mV | 2.0 ± 0.2 | -16.5 ± 1.3 mV | 5.0 ± 1.3 | – | –
CCCCC/C=C\C/C=C\CCCCCCCC(=O)NCC(=O)O [Lin-glycine] | 18.2 ± 0.89 mV | 1.2 ± 0.1 | -2.7 ± 1.5 mV | 1.2± 0.1 | 19.0 ± 1.0 mV | 1.3 ± 0.1 | -3.3 ± 3.0 mV | 1.4 ± 0.1 | 19.2 ± 1.2 mV | 1.8 ± 0.2 | -10.0 ± 2.8 mV | 2.5 ± 0.4 | 20.6 ± 1.5 mV | 2.3 ± 0.2 | −23.8 ± 1.6 mV | 22.1 ± 1.7 mV | 2.4 ± 0.2 | -26.4 ± 4.4 mV | 5.3 ± 0.5 | 5.1 ± 0.4 (p=0.002) | ΔV0.5 (voltage dependence of activation) (7 μM, listed as lin-glycine): -23.8 ± 1.6 mV; IKs I/I0 (7 μM, listed as lin-glycine): 5.1 ± 0.4
CCCCC/C=C\C/C=C\CCCCCCCC(=O)NCCS(=O)(=O)O [Lin-taurine, Linoleoyl taurine] | 17.7 ± 0.76 mV | 1.0 ± 0.03 | 1.3 ± 0.7 mV | 1.0 ± 0.1 | 17.7 ± 0.77 mV | 1.1 ± 0.02 | -0.3 ± 1.4 mV | 1.2 ± 0.2 | 18.6 ± 1.0 mV | 1.7 ± 0.4 | -12.3 ± 3.1 mV | 3.2 ± 0.9 | 18.1 ± 1.0 mV | 1.9 ± 0.6 | −39.9 ± 3.6 mV | 12.2 ± 1.8 mV | 2.0 ± 0.6 | -73.1 ± 2.6 mV | 10.4 ± 4.0 | 7.7 ± 2.9 (p=0.14) | ΔV0.5 (voltage dependence of activation) (7 μM, listed as lin-taurine): -39.9 ± 3.6 mV; IKs I/I0 (7 μM, listed as lin-taurine): 7.7 ± 2.9
CCCCC/C=C\C/C=C\C/C=C\C/C=C\CCCC(=O)NCCS(=O)(=O)O [N-AT, N-arachidonoyl taurine] | 16.9 ± 0.65 mV | 1.0 ± 0.1 | 0.7 ± 0.8 mV | 1.0 ± 0.02 | 17.2 ± 0.62 mV | 0.9 ± 0.02 | 0.9 ± 1.1 mV | 1.0 ± 0.03 | 17.4 ± 0.60 mV | 0.9 ± 0.02 | 0.6 ± 1.1 mV | 1.0 ± 0.04 | 18.2 ± 0.59 mV | 0.9 ± 0.03 | –1.8 ± 2.6 mV | 18.7 ± 0.73 mV | 0.9 ± 0.02 | -8.5 ± 4.9 mV | 1.3 ± 0.2 | – | concentrations at which the effects on IKs appear (I/I0 at 0 mV): > 20 µM
CCCCC/C=C\C/C=C\CC/C=C\CCCC(=O)NCC(=O)O [Pin-glycine] | 17.9 ± 0.83 mV | 1.0 ± 0.1 | 3.9 ± 0.6 mV | 0.7 ± 0.1 | 17.8 ± 0.84 mV | 1.2 ± 0.1 | 2.3 ± 0.2 mV | 1.0 ± 0.1 | 17.9 ± 0.91 mV | 1.3 ± 0.1 | 2.3 ± 0.7 mV | 1.1 ± 0.1 | 18.7 ± 1.1 mV | 1.7 ± 0.1 | – | 20.9 ± 1.4 mV | 1.7 ± 0.1 | -19.9 ± 2.4 mV | 3.6 ± 0.2 | – | ΔV0.5 (voltage dependence of activation) (7 μM, listed as pin-glycine): -8.5 ± 1.7 mV; IKs I/I0 (7 μM, listed as pin-glycine): 2.4 ± 0.2
CCCCC/C=C\C/C=C\CC/C=C\CCCC(=O)NCCS(=O)(=O)O [Pin-taurine] | 17.9 ± 0.82 mV | 1.2 ± 0.1 | 2.6 ± 2.4 mV | 1.1 ± 0.1 | 17.7 ± 0.82 mV | 1.3 ± 0.2 | 2.3 ± 3.5 mV | 1.4 ± 0.4 | 18.3 ± 0.96 mV | 2.0 ± 0.4 | -4.9 ± 3.4 mV | 3.0 ± 0.4 | 18.8 ± 1.0 mV | – | −23.8 ± 2.7 mV | 16.8 ± 0.73 mV | 1.9 ± 0.3 | -51.6 ± 3.5 mV | 9.0 ± 1.4 | 6.8 ± 1.0 (p=0.01) | Gmax/Gmax0 (7 μM, listed as pin-taurine): 2.2 ± 0.4; ΔV0.5 (voltage dependence of activation) (7 μM, listed as pin-taurine): -23.8 ± 2.7 mV; IKs I/I0 (7 μM, listed as pin-taurine): 6.8 ± 1.0
